Some test systems named below: CAKI-1 renal; HOP-92 NSCLC; NCI/ADR-RES ovarian; PC-3 prostate; RXF 393 renal; SK-OV-3 ovarian; T-47D breast; UACC-62 melanoma.
Common to all, as to experiment: DTP human tumour cell line panel, 48 h

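Grown in 96-well plates, cells were treated for 48 hours with each compound at five concentrations. Insufficient inhibition: endpoint recorded as highest concentration tested. GI50: concentration for 50% inhibition of growth. Definition used: TGI = concentration required for complete inhibition of growth.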 Bounds are passed on as bounds.

Regarding `C(=C\c1ccncc1)/c1ccncc1`, the GI50 is over 100 µM in the test on CAKI-1 renal; 74.9 µM in the test on HOP-92 NSCLC; over 100 µM in the test on NCI/ADR-RES ovarian; over 100 µM in the test with PC-3 prostate; over 100 µM with RXF 393 renal; over 100 µM in the test on SK-OV-3 ovarian. Also, the GI50 in the test with T-47D breast and with UACC-62 melanoma was over 100 µM throughout. For the same molecule, the concentration for total growth inhibition (TGI) in the test with CAKI-1 renal, with HOP-92 NSCLC, in the test on NCI/ADR-RES ovarian, with PC-3 prostate, with RXF 393 renal and in the test on SK-OV-3 ovarian was over 100 µM throughout. For the same molecule, the TGI with T-47D breast and in the test on UACC-62 melanoma was over 100 µM in each case.

Turning to `Cc1cc2c3c([n+](C)c4ccc(F)cc4c3c1)-c1cc(F)ccc1N2C`, the GI50 in the test on CAKI-1 renal was over 100 µM; in the test on HOP-92 NSCLC, 16.4 µM; in the test with NCI/ADR-RES ovarian, over 100 µM; in the test with PC-3 prostate, 19.9 µM; in the test with RXF 393 renal, over 100 µM; in the test with SK-OV-3 ovarian, 64.7 µM. Moreover, the GI50 in the test on T-47D breast is 2.85 µM. Moreover, the TGI in the test with CAKI-1 renal is over 100 µM; with HOP-92 NSCLC, 46 µM; in the test on NCI/ADR-RES ovarian, over 100 µM; in the test on PC-3 prostate, 77.7 µM; in the test on RXF 393 renal, over 100 µM; with SK-OV-3 ovarian it was over 100 µM. This molecule showed a TGI with T-47D breast of 84 µM.

Turning to `C=C1C(=O)O[C@H]2[C@H]1CC/C(COC(=O)CCCCCCCC(=O)OC/C1=C/CC[C@@]3(C)O[C@H]3[C@H]3OC(=O)C(=C)[C@@H]3CC1)=C\CC[C@@]1(C)O[C@@H]21`, the GI50 in the test on HOP-92 NSCLC was 2.16 µM; with NCI/ADR-RES ovarian, 3.35 µM; with PC-3 prostate it was 1.96 µM; with RXF 393 renal, 1.43 µM; with SK-OV-3 ovarian, 13.1 µM; in the test with T-47D breast it was 2.3 µM. In addition, the GI50 in the test with UACC-62 melanoma was 2.45 µM. The concentration for total growth inhibition (TGI) in the test on HOP-92 NSCLC was 5.07 µM; in the test with NCI/ADR-RES ovarian, over 100 µM; in the test with PC-3 prostate, 4.62 µM; in the test on RXF 393 renal, 2.88 µM; with SK-OV-3 ovarian, 34.3 µM; with T-47D breast it was 8.26 µM. The molecule further came in with a TGI with UACC-62 melanoma of 6.51 µM.

Turning to `CN(C)CC1C(=O)O[C@H]2[C@H]1CC/C(COC(=O)NCc1ccc(Cn3c(=O)sn(CCCI)c3=O)cc1)=C\CC[C@@]1(C)O[C@@H]21` (stereo partly specified), the GI50 with CAKI-1 renal is 0.886 µM; with HOP-92 NSCLC, 0.786 µM; in the test with NCI/ADR-RES ovarian it was 10.2 µM; in the test on PC-3 prostate, 0.251 µM; in the test on RXF 393 renal it was 0.889 µM; in the test on SK-OV-3 ovarian, 7.96 µM. In addition, the GI50 in the test with UACC-62 melanoma was 1.28 µM. For the same molecule, the total growth inhibition concentration (TGI) came to 1.95 µM in the test on CAKI-1 renal; 2.56 µM with HOP-92 NSCLC; 30.1 µM in the test with NCI/ADR-RES ovarian; 7.32 µM with PC-3 prostate; 1.71 µM with RXF 393 renal; 14.8 µM in the test on SK-OV-3 ovarian. The total growth inhibition concentration (TGI) with UACC-62 melanoma came out at 3.97 µM.

With `O=C1C(Cl)=C(Nc2cc(Cl)ccc2O)C(=O)N1Cc1ccccc1`, the GI50 is 18.3 µM in the test with CAKI-1 renal; 18.9 µM in the test with NCI/ADR-RES ovarian; 16.3 µM in the test with PC-3 prostate; 14.1 µM with RXF 393 renal; 19.7 µM with SK-OV-3 ovarian; 27.6 µM in the test on T-47D breast. In addition, the GI50 with UACC-62 melanoma was 16.2 µM. The TGI in the test with CAKI-1 renal was 40.9 µM; with NCI/ADR-RES ovarian it was 37.4 µM; with PC-3 prostate, 32.6 µM; with RXF 393 renal it was 30.3 µM; in the test with SK-OV-3 ovarian it was 43.3 µM; with T-47D breast, over 100 µM. The total growth inhibition concentration (TGI) in the test with UACC-62 melanoma is 30.8 µM.

For `Cn1c2c(c3ccccc3c1=O)C(=O)c1ccccc1-2`, the concentration for total growth inhibition (TGI) in the test with CAKI-1 renal, in the test with HOP-92 NSCLC, with NCI/ADR-RES ovarian, in the test with PC-3 prostate, with SK-OV-3 ovarian and in the test with T-47D breast was over 100 µM throughout. Also, the TGI in the test with UACC-62 melanoma was over 100 µM.

`Cc1cc(-c2nc3n(c2/C=N/N=C(N)N)CCS3)c(C)s1`: the GI50 in the test on CAKI-1 renal is 8.02 µM; in the test with NCI/ADR-RES ovarian it was 74.4 µM; in the test with PC-3 prostate, 13.1 µM; in the test with SK-OV-3 ovarian, 19.8 µM; in the test with T-47D breast, 17.6 µM; with UACC-62 melanoma it was 12.9 µM. The TGI in the test on CAKI-1 renal was 23.8 µM; in the test with NCI/ADR-RES ovarian, over 100 µM; with PC-3 prostate, 27.7 µM; with SK-OV-3 ovarian it was 36.9 µM; in the test with T-47D breast it was 32.5 µM; in the test with UACC-62 melanoma, 25.5 µM.

On to `CC(=O)c1ccc2c3c1[C@H]1O[C@H]1c1cccc(c1-3)[C@@H]1O[C@H]21`, for which the TGI came out at 2.67 µM with CAKI-1 renal; 3.69 µM in the test on HOP-92 NSCLC; 5.68 µM with NCI/ADR-RES ovarian; 3.82 µM with RXF 393 renal; 16 µM in the test on SK-OV-3 ovarian; 6.55 µM in the test on T-47D breast. In the test on UACC-62 melanoma, this molecule showed a TGI of 4.15 µM. The GI50 with NCI/ADR-RES ovarian is 2.3 µM.

Take `C=C(C)C1CCC2=CC(CC3(C)OC3C3=CC(C(=O)OC)=C(C1)O3)OC2=O` (stereo unspecified): the TGI in the test on CAKI-1 renal, with HOP-92 NSCLC, in the test on NCI/ADR-RES ovarian, with PC-3 prostate, with RXF 393 renal and in the test with T-47D breast was over 100 µM each time.

For `CSc1nnc(-c2cc3c([nH]c4ccccc43)c(-c3cccc(O)c3)n2)n1-c1ccc(C)cc1`, the GI50 in the test with HOP-92 NSCLC is 1.75 µM; in the test on NCI/ADR-RES ovarian, 5.64 µM; in the test with PC-3 prostate it was 3.58 µM; in the test with RXF 393 renal, 2.11 µM; in the test on SK-OV-3 ovarian it was 3.19 µM; in the test on T-47D breast, 1.95 µM. In addition, in the test on UACC-62 melanoma, the GI50 was 3.28 µM. Further, the TGI with HOP-92 NSCLC is 7.59 µM; in the test on NCI/ADR-RES ovarian, over 100 µM; in the test on PC-3 prostate it was 23 µM; in the test with RXF 393 renal, 6.51 µM; in the test with SK-OV-3 ovarian it was 14 µM; in the test with T-47D breast it was 8.16 µM. This molecule gave a TGI in the test on UACC-62 melanoma of 21.5 µM.

On to `COc1cccc(N2CCN(c3ncnc4cc[nH]c34)CC2)c1`, for which the GI50 in the test on CAKI-1 renal is 5.75 µM; in the test on NCI/ADR-RES ovarian, 2.87 µM; with PC-3 prostate, 6.99 µM; in the test with RXF 393 renal, 33.6 µM; in the test with SK-OV-3 ovarian, 51.5 µM; with T-47D breast, 2.92 µM. Besides, the GI50 in the test on UACC-62 melanoma is 6.05 µM. Further, the concentration for total growth inhibition (TGI) in the test on CAKI-1 renal is over 100 µM; in the test with NCI/ADR-RES ovarian, 40.4 µM; in the test on PC-3 prostate it was over 100 µM; in the test with RXF 393 renal it was over 100 µM; with SK-OV-3 ovarian, over 100 µM; with T-47D breast, 44.1 µM. Further, in the test on UACC-62 melanoma, the TGI was 39.8 µM.

In the case of `COc1cc2c3c(n([C@@H]4CCOC4)c(=O)c2cc1OC)-c1cc2c(cc1C3=O)OCO2`, in the test on NCI/ADR-RES ovarian, the concentration for 50% growth inhibition (GI50) was under 0.01 µM and the TGI was over 100 µM.

With `O=c1cc(-c2ccccc2)oc2cc(OCCCCCN3CCOCC3)cc(O)c12`, the GI50 in the test on HOP-92 NSCLC was 11 µM; in the test with NCI/ADR-RES ovarian, 72 µM; in the test with PC-3 prostate, 54.1 µM; in the test on RXF 393 renal, 16.8 µM; in the test with SK-OV-3 ovarian it was 16.4 µM; in the test on T-47D breast it was 42.5 µM. In the test with UACC-62 melanoma, the GI50 was 95.7 µM. Moreover, the TGI was 26.6 µM in the test with HOP-92 NSCLC; over 100 µM in the test with NCI/ADR-RES ovarian; over 100 µM in the test with PC-3 prostate; 46.1 µM in the test with RXF 393 renal; 44.1 µM in the test with SK-OV-3 ovarian; over 100 µM with T-47D breast. Further, in the test on UACC-62 melanoma, the TGI is over 100 µM.

Consider `COc1ccc2c(CCCc3ccc(Cl)cc3Cl)c3[n+](cc2c1OC)CCc1cc2c(cc1-3)OCO2`, for which the GI50 with CAKI-1 renal is 5.1 µM; in the test on HOP-92 NSCLC, 0.228 µM; in the test on NCI/ADR-RES ovarian, 7.74 µM; in the test with PC-3 prostate it was 0.279 µM; in the test with SK-OV-3 ovarian, 0.873 µM; with T-47D breast, 0.325 µM. In addition, in the test on UACC-62 melanoma, the GI50 is 0.284 µM. The TGI was 23.7 µM in the test with CAKI-1 renal; 1.14 µM with HOP-92 NSCLC; 54.2 µM in the test on NCI/ADR-RES ovarian; 1.24 µM in the test on PC-3 prostate; 2.2 µM with SK-OV-3 ovarian; 1.84 µM in the test on T-47D breast. The molecule further had a total growth inhibition concentration (TGI) in the test with UACC-62 melanoma of 1.38 µM.

For the molecule `Cc1ccnc2c(NC(C)CCCN)cc(O)c(O)c12` (stereo unspecified), the GI50 in the test on CAKI-1 renal was 38.7 µM; in the test on NCI/ADR-RES ovarian it was 16.3 µM; in the test with PC-3 prostate it was 17.1 µM; in the test with RXF 393 renal, 32.3 µM; in the test on SK-OV-3 ovarian, 39.3 µM; with T-47D breast, 11.6 µM. Further, in the test with UACC-62 melanoma, the GI50 is 32.3 µM. In addition, the TGI was over 100 µM in the test with CAKI-1 renal; over 100 µM in the test with NCI/ADR-RES ovarian; 53.8 µM in the test on PC-3 prostate; over 100 µM with RXF 393 renal; over 100 µM with SK-OV-3 ovarian; 43.7 µM in the test with T-47D breast. Besides, the TGI in the test on UACC-62 melanoma is over 100 µM.

`C[C@@]1(C(=O)O)CCC[C@]2(C)C1CC[C@]13C[C@@](O)(CO)[C@](O)(CC[C@]12O)C3` (stereo partly specified): the GI50 in the test with CAKI-1 renal, with NCI/ADR-RES ovarian, with PC-3 prostate, with RXF 393 renal, with SK-OV-3 ovarian and in the test on T-47D breast was over 100 µM throughout. For the same molecule, in the test on UACC-62 melanoma, the GI50 was over 100 µM. Also, the TGI with CAKI-1 renal, with NCI/ADR-RES ovarian, in the test on PC-3 prostate, with RXF 393 renal, in the test on SK-OV-3 ovarian and with T-47D breast was over 100 µM throughout. The molecule also showed a TGI with UACC-62 melanoma of over 100 µM.
